Assay results taken from US12180202B1, “2-[(1,3-benzothiazol-2-yl)imino]-5,5-diphenylimidazolidin-4-one as an antimicrobial compound” (KING FAISAL UNIVERSITY, priority 2023, dated 2024).

Tests used:
Format in all cases: cell-based
[1] = test system: Chrysosporium keratinophilum; assay: agar plate disc-diffusion, antifungal activity; conditions: Sabouraud's dextrose agar, 72 h
Procedure: (§1) The agar plate disc-diffusion method was applied. […] The discs were then placed onto the surface of agar plates (nutrient agar for bacteria and Sabouraud's dextrose agar for fungi) seeded with the test organism. Each plate contained 15 mL of the agar medium, previously seeded with 0.2 mL of the broth culture of each organism pregrown for 18 hours. The plates were incubated at 37° C. for 48 h, and 72 h for fungi. The inhibition zones were measured in mm. Discs impregnated with DMSO were used as a control, and its inhibition zone was subtracted from the tested compound actual inhibition zone.

Aspergillus flavus = assay: agar plate disc-diffusion, antifungal activity; conditions: Sabouraud's dextrose agar, 72 h
Procedure: as §1

Pseudomonas aeruginosa = assay: agar plate disc-diffusion, antibacterial activity; conditions: nutrient agar, 37° C., 48 h
Procedure: as §1

Staphylococcus aureus = assay: agar plate disc-diffusion, antibacterial activity; conditions: nutrient agar, 37° C., 48 h
Procedure: as §1

Escherichia coli = assay: agar plate disc-diffusion, antibacterial activity; conditions: nutrient agar, 37° C., 48 h
Procedure: as §1

Bacillus cereus = assay: agar plate disc-diffusion, antibacterial activity; conditions: nutrient agar, 37° C., 48 h
Procedure: as §1

different microbes = assay: antimicrobial activity screening, overall statement; conditions: against different microbes (bacteria and fungi of Tables 1 and 2)
Procedure: The agar plate disc-diffusion method was applied. Sterilized filter papers (6 mm in diameter) were wetted with 10 μL of a solution of 2-[(1,3-benzothiazol-2-yl)imino]-5,5-diphenylimidazolidin-4-one (3) to be tested, containing 10 mg/mL in DMSO, and the discs were allowed to air dry. The discs were then placed onto the surface of agar plates (nutrient agar for bacteria and Sabouraud's dextrose agar for fungi) seeded with the test organism. Each plate contained 15 mL of the agar medium, previously seeded with 0.2 mL of the broth culture of each organism pregrown for 18 hours. The plates were incubated at 37° C. for 48 h, and 72 h for fungi. The inhibition zones were measured in mm. Discs impregnated with DMSO were used as a control, and its inhibition zone was subtracted from the tested compound actual inhibition zone.

[2] = A = concentration of comp. = 10,000 μL
[3] = B = concentration of comp. = 30,000 μL
[4] = C = concentration of comp. = 50,000 μL
[5] = A = concentration of comp. = 10 mg/mL

SMILES	inhibition zone [1, 2]	inhibition zone [1, 3]	inhibition zone [1, 4]	inhibition zone (Aspergillus flavus; [5])	inhibition zone (Aspergillus flavus; [3])	inhibition zone (Aspergillus flavus; [4])	inhibition zone (Pseudomonas aeruginosa; [2])	inhibition zone (Pseudomonas aeruginosa; [3])	inhibition zone (Pseudomonas aeruginosa; [4])	inhibition zone (Staphylococcus aureus; [2])	inhibition zone (Staphylococcus aureus; [3])	inhibition zone (Staphylococcus aureus; [4])	inhibition zone (Escherichia coli; A =)	inhibition zone (Escherichia coli; [3])	inhibition zone (Escherichia coli; [4])	inhibition zone (Bacillus cereus; [2])	inhibition zone (Bacillus cereus; [3])	inhibition zone (Bacillus cereus; [4])	antimicrobial activities (different microbes)
O=C(O)c1cn(C2CC2)c2cc(N3CCNCC3)c(F)cc2c1=O [Cip., ciprofloxacin, reference compound]	29 mm	30 mm	53 mm	29 mm	30 mm	42 mm	29 mm	30 mm	53 mm	43 mm	44 mm	53 mm	30 mm	39 mm	60 mm	29 mm	30 mm	42 mm	
O=C1N/C(=N/c2nc3ccccc3s2)NC1(c1ccccc1)c1ccccc1 [Compound 3, 2-[(1,3-benzothiazol-2-yl)imino]-5,5-diphenylimidazolidin-4-one]	26 mm	29 mm	45 mm	21 mm	25 mm	31 mm	24 mm	28 mm	45 mm	19 mm	23 mm	35 mm	26 mm	34 mm	50 mm	20 mm	23 mm	35 mm	excellent antimicrobial activities
